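Cells were grown in 96-well plates and exposed to each compound for 48 hours at five concentrations; endpoints were interpolated linearly between bracketing concentrations, or set to the highest concentration if not reached. GI50 is the concentration that inhibits growth by half.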 Calls of active or inactive are those of the source. Rule as the data show it: active = GI50 up to about 1.1 µM and inactive = higher. Residues, ends and D or L forms follow the SMILES beside them. *: point of attachment. Boc = CC(C)(C)OC(=O)*; OBn = c1ccc(CO*)cc1
How the values were obtained:
Experiment in all cases: NCI anticancer screen, dose series, 48 h
NCI-H226 = tested on: NCI-H226
SK-MEL-5 = tested on: SK-MEL-5
NCI/ADR-RES = tested on: NCI/ADR-RES
OVCAR-5 = tested on: OVCAR-5
KM12 = tested on: KM12
HT-29 = tested on: HT-29
OVCAR-3 = tested on: OVCAR-3
SR = tested on: SR
UACC-257 = tested on: UACC-257
SNB-19 = tested on: SNB-19
COLO 205 = tested on: COLO 205
HCC 2998 = tested on: HCC 2998
U-251 = tested on: U-251
A498 = tested on: A498
OVCAR-8 = tested on: OVCAR-8
Hs-578T = tested on: Hs-578T
MDA-N = tested on: MDA-N
A549 = tested on: A549
SW-620 = tested on: SW-620
UO-31 = tested on: UO-31

Measured: GI50

CC(C)CC(NC(=O)OC(C)(C)C)C(=O)NC(CC(=O)OCc1ccccc1)C(=O)OCc1ccccc1 (stereo not drawn) (Boc-Leu-Asp(OBn)-OBn; configuration not given here)
inactive: NCI-H226 57.9 µM | SK-MEL-5 24.7 µM | NCI/ADR-RES > 100 µM | OVCAR-5 > 100 µM | KM12 41.8 µM | HT-29 37.5 µM | OVCAR-3 22.4 µM | SR 25.8 µM | UACC-257 32.9 µM | SNB-19 29.4 µM | COLO 205 43.2 µM | HCC 2998 20.9 µM | U-251 25.5 µM | A498 > 100 µM | OVCAR-8 > 100 µM | Hs-578T > 100 µM | MDA-N 42.2 µM | A549 > 100 µM | SW-620 34.2 µM | UO-31 27 µM

COc1c(C)c(OC)c(C(=O)CC(C)C)c(OC)c1C
inactive: NCI-H226 > 100 µM | SK-MEL-5 40.3 µM | NCI/ADR-RES 52.6 µM | OVCAR-5 > 100 µM | KM12 74 µM | HT-29 63.4 µM | OVCAR-3 > 100 µM | SR 21.4 µM | UACC-257 > 100 µM | SNB-19 24.9 µM | COLO 205 > 100 µM | HCC 2998 > 100 µM | U-251 > 100 µM | A498 > 100 µM | OVCAR-8 > 100 µM | Hs-578T > 100 µM | MDA-N > 100 µM | A549 > 100 µM | SW-620 > 100 µM | UO-31 49.9 µM

CCc1c[n+]2c(cc1C1=CN3c4ccccc4[C@]45CCN6C/C(=C/CO)[C@H](C[C@H]64)[C@@H]([C@@H]1O)[C@H]35)-c1[nH]c3ccccc3c1CC2
inactive: NCI-H226 > 50 µM | SK-MEL-5 > 50 µM | NCI/ADR-RES > 50 µM | OVCAR-5 > 50 µM | KM12 > 50 µM | HT-29 > 50 µM | OVCAR-3 > 50 µM | SR > 50 µM | UACC-257 > 50 µM | SNB-19 > 50 µM | COLO 205 > 50 µM | HCC 2998 > 50 µM | U-251 > 50 µM | A498 > 50 µM | OVCAR-8 > 50 µM | Hs-578T > 50 µM | MDA-N > 50 µM | A549 > 50 µM | SW-620 > 50 µM | UO-31 > 50 µM

CNc1nc2n(CCO)c(-c3ccccc3)c(-c3ccccc3)nc-2c(=O)n1
inactive: NCI-H226 > 50 µM | SK-MEL-5 > 50 µM | NCI/ADR-RES > 50 µM | OVCAR-5 > 50 µM | KM12 > 50 µM | HT-29 > 50 µM | OVCAR-3 14.8 µM | SR > 50 µM | UACC-257 > 50 µM | SNB-19 > 50 µM | COLO 205 > 50 µM | HCC 2998 > 50 µM | U-251 > 50 µM | A498 > 50 µM | OVCAR-8 > 50 µM | Hs-578T > 50 µM | MDA-N > 50 µM | A549 > 50 µM | SW-620 > 50 µM | UO-31 > 50 µM
